The kinase profiling compilation of Christmann-Franck et al. (2016)

Experiments:
Test in all cases: radiometric filter-binding kinase assay, Kinase HotSpot
Details in all cases: compound 0.5 µM; ATP 10 µM
MAP3K3 (human) = MAP3K3 (human) (UniProt Q99759)
ROS1 (human) = ROS1 (human) (UniProt P08922)
BMX (human) = BMX (human) (UniProt P51813)
MAP2K1 (human) = MAP2K1 (human) (UniProt Q02750)
MARK3 (human) = MARK3 (human) (UniProt P27448)
DAPK3 (human) = DAPK3 (human) (UniProt O43293)
PLK2 (human) = PLK2 (human) (UniProt Q9NYY3)
SRPK2 (human) = SRPK2 (human) (UniProt P78362)
DYRK1B (human) = DYRK1B (human) (UniProt Q9Y463)
DYRK1B (human), sequence (Q9Y463 whole entry, looked up): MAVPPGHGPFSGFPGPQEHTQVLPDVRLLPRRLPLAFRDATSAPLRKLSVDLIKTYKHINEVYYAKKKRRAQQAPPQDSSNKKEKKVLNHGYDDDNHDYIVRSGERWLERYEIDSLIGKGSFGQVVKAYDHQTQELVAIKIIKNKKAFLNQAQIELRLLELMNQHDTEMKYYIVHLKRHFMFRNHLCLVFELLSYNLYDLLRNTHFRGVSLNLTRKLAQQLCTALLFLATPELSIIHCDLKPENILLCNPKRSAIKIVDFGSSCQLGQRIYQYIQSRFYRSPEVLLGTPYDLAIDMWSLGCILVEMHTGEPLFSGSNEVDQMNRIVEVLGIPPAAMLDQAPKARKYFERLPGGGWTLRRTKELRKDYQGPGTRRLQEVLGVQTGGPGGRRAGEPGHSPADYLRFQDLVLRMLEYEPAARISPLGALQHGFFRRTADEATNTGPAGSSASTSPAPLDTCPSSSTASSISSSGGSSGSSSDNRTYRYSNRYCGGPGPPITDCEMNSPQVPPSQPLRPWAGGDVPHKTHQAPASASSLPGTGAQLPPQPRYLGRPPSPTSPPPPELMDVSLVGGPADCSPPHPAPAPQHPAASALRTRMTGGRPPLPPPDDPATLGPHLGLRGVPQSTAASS

CDK7 CCNH MNAT1 (human) = CDK7 CCNH MNAT1 (human) (UniProt P50613+P51948+P51946)
PDGFRA (human) = PDGFRA (human) (UniProt P16234)
NEK3 (human) = NEK3 (human) (UniProt P51956)
NEK3 (human), sequence (P51956 whole entry, looked up): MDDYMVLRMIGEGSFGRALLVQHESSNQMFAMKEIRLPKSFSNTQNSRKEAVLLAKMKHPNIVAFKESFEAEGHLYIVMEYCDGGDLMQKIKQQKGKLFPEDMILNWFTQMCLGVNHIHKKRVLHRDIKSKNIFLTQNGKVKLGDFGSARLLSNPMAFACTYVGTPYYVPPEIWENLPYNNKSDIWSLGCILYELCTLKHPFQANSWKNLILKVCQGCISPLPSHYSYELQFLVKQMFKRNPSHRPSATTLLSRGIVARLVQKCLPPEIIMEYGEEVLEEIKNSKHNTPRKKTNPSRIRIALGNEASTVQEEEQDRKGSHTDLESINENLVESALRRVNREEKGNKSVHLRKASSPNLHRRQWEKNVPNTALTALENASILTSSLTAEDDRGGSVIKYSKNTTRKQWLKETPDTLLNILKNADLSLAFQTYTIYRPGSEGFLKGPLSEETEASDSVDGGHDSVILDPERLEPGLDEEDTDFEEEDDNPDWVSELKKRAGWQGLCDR

ERBB4 (human) = ERBB4 (human) (UniProt Q15303)
MAP3K9 (human) = MAP3K9 (human) (UniProt P80192)
MAP3K10 (human) = MAP3K10 (human) (UniProt Q02779)
DYRK3 (human) = DYRK3 (human) (UniProt O43781)
PBK (human) = PBK (human) (UniProt Q96KB5)
NTRK3 (human) = NTRK3 (human) (UniProt Q16288)
PNCK (human) = PNCK (human) (UniProt Q6P2M8)
CAMK1G (human) = CAMK1G (human) (UniProt Q96NX5)
PRKCG (human) = PRKCG (human) (UniProt P05129)
ADRBK2 (human) = ADRBK2 (human) (UniProt P35626)
TEK (human) = TEK (human) (UniProt Q02763)
PRKD1 (human) = PRKD1 (human) (UniProt Q15139)
RPS6KA4 KD2 (human) = RPS6KA4 KD2 (human) (UniProt O75676)
RIPK2 (human) = RIPK2 (human) (UniProt O43353)
CSK (human) = CSK (human) (UniProt P41240)
ABL1 (human) = ABL1 (human) (UniProt P00519)
TXK (human) = TXK (human) (UniProt P42681)
EPHA1 (human) = EPHA1 (human) (UniProt P21709)
GSG2 (human) = GSG2 (human) (UniProt Q8TF76)
CAMKK2 (human) = CAMKK2 (human) (UniProt Q96RR4)
TNK2 (human) = TNK2 (human) (UniProt Q07912)
CSNK2A1 (human) = CSNK2A1 (human) (UniProt P68400)
CSNK2A1 (human), sequence (P68400 whole entry, looked up): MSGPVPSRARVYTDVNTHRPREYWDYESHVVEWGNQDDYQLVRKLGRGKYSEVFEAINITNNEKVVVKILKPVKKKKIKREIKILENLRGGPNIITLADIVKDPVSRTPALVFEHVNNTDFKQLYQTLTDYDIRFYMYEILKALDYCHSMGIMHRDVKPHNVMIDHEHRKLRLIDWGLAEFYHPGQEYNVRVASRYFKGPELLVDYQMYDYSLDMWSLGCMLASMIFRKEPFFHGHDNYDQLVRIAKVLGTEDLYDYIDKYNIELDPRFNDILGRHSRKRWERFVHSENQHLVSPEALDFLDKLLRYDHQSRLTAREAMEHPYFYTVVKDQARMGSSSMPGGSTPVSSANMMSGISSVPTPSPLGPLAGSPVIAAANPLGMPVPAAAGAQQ

RET (human) = RET (human) (UniProt P07949)
CAMK2G (human) = CAMK2G (human) (UniProt Q13555)
TAOK2 (human) = TAOK2 (human) (UniProt Q9UL54)
MAP3K8 (human) = MAP3K8 (human) (UniProt P41279)
IKBKB (human) = IKBKB (human) (UniProt O14920)
ACVR1B (human) = ACVR1B (human) (UniProt P36896)
ACVR1B (human), sequence (P36896 whole entry, looked up): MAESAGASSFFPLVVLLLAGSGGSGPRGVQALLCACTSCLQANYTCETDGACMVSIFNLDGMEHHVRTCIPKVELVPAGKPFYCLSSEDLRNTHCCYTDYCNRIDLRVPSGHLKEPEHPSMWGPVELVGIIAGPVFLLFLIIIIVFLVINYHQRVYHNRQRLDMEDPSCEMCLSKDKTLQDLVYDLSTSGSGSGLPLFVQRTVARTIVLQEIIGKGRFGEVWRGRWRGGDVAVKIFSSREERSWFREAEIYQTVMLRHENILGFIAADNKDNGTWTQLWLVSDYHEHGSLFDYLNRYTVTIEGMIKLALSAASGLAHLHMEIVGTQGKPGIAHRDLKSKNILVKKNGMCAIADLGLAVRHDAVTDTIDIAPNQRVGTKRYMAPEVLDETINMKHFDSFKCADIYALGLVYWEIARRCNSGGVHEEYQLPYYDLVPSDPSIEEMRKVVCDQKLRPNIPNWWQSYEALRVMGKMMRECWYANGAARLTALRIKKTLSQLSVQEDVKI

DDR2 (human) = DDR2 (human) (UniProt Q16832)

ROS1 (human), sequence (P08922 whole entry, looked up): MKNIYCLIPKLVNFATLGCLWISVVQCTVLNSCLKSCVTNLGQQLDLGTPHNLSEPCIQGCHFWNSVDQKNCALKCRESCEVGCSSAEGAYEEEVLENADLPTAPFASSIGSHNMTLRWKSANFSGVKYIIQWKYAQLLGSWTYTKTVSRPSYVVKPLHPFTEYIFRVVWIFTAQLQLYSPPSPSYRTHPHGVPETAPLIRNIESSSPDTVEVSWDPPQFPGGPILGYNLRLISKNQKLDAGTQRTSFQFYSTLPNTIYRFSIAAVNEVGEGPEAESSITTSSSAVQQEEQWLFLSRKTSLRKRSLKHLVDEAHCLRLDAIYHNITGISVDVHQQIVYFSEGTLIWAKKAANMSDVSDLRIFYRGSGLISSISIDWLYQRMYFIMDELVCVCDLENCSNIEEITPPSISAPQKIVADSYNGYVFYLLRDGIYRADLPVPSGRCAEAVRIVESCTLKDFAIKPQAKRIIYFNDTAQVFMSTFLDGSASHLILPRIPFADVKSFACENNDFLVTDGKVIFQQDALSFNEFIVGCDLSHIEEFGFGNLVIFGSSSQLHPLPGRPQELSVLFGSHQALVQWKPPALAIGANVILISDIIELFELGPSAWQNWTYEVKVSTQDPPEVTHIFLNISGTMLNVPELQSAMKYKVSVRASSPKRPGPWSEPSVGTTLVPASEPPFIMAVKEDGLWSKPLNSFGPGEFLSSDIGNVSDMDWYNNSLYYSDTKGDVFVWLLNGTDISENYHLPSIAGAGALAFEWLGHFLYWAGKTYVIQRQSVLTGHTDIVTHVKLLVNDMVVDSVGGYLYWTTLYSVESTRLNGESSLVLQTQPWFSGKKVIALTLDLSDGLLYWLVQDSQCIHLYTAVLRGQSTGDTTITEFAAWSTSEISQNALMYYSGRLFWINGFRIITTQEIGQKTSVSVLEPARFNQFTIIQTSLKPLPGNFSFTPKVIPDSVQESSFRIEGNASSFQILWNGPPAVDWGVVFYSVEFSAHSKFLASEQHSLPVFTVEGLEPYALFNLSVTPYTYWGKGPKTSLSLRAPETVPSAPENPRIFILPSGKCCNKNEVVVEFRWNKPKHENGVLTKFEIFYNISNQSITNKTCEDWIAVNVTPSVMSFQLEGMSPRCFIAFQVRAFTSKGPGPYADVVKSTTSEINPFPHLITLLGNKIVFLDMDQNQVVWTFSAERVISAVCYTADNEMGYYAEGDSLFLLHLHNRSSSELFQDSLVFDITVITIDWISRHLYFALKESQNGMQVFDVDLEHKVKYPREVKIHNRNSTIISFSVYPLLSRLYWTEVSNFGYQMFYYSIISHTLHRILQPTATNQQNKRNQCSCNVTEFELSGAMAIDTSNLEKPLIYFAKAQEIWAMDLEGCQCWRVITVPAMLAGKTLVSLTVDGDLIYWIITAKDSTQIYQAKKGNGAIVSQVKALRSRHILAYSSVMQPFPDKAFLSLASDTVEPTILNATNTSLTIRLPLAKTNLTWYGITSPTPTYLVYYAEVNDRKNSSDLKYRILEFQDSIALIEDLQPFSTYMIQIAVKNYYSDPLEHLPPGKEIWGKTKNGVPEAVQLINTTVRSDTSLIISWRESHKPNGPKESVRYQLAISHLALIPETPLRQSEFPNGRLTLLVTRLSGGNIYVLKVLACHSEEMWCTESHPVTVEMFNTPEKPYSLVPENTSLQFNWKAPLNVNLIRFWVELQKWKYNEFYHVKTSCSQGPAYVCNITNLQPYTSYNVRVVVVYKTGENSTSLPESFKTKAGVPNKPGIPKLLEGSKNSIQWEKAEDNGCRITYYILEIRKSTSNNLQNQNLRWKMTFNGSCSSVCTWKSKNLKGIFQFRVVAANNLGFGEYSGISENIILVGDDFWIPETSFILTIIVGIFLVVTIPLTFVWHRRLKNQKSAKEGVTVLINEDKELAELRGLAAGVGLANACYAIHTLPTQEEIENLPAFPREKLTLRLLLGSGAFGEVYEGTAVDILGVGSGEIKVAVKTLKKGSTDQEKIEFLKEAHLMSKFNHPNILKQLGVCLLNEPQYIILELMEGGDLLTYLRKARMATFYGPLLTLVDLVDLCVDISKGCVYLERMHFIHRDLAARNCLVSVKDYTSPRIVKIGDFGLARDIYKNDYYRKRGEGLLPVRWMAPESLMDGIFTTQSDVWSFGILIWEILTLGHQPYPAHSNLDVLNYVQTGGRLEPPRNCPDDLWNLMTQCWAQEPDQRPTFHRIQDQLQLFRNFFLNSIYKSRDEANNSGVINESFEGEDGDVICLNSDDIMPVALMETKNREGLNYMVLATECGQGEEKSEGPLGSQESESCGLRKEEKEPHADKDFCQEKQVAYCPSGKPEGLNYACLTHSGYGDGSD
MAP3K3 (human), sequence (Q99759 whole entry, looked up): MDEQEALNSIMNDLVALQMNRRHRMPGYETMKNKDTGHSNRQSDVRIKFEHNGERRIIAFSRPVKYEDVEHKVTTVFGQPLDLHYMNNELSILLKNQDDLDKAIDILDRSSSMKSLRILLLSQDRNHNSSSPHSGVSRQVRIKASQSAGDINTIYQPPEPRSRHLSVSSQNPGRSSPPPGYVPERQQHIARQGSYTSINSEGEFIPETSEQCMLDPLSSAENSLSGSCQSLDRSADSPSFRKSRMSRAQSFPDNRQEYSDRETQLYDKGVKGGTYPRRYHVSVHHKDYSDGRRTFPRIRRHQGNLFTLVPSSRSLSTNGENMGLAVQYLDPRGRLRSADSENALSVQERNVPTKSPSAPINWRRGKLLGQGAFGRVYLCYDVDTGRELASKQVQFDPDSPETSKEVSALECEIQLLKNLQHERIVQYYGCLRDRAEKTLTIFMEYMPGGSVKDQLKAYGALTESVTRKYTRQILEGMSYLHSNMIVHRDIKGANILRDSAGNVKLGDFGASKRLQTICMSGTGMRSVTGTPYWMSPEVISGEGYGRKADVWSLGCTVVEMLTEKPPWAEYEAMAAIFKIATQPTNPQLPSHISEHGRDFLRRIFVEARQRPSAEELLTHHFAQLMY

SMILES	residual activity (MAP3K3 (human)) [%]	residual activity (ROS1 (human)) [%]	residual activity (BMX (human)) [%]	residual activity (MAP2K1 (human)) [%]	residual activity (MARK3 (human)) [%]	residual activity (DAPK3 (human)) [%]	residual activity (PLK2 (human)) [%]	residual activity (DYRK1B (human)) [%]	residual activity (PDGFRA (human)) [%]	residual activity (NEK3 (human)) [%]	residual activity (MAP3K9 (human)) [%]	residual activity (MAP3K10 (human)) [%]	residual activity (DYRK3 (human)) [%]	residual activity (PNCK (human)) [%]	residual activity (ADRBK2 (human)) [%]	residual activity (RPS6KA4 KD2 (human)) [%]	residual activity (RIPK2 (human)) [%]	residual activity (CSK (human)) [%]	residual activity (ABL1 (human)) [%]	residual activity (TXK (human)) [%]	other results
CN(C)S(=O)(=O)c1ccc2c(c1)/C(=C/c1cc3c([nH]1)CCCC3)C(=O)N2	48.7	83.3	103	88.7	68.9	94.4	94.4	93.6	93.7	98.2	74.6	99.1	99.1	95.7	97	104	88.9	93.1	57.3	96	residual activity (SRPK2 (human)): 50.3%; residual activity (CDK7 CCNH MNAT1 (human)): 76.4%; residual activity (ERBB4 (human)): 106%; residual activity (PBK (human)): 99.7%; residual activity (NTRK3 (human)): 2.88%; residual activity (CAMK1G (human)): 97.1%; residual activity (PRKCG (human)): 86.8%; residual activity (TEK (human)): 95.4%; residual activity (PRKD1 (human)): 102%; residual activity (EPHA1 (human)): 94.5%; residual activity (GSG2 (human)): 116%; residual activity (CAMKK2 (human)): 27.3%; residual activity (TNK2 (human)): 12.6%; residual activity (CSNK2A1 (human)): 105%; residual activity (RET (human)): 6.29%; residual activity (CAMK2G (human)): 98.9%; residual activity (TAOK2 (human)): 89.6%; residual activity (MAP3K8 (human)): 94.6%; residual activity (IKBKB (human)): 107%; residual activity (ACVR1B (human)): 105%
CO[C@@H]1[C@H](N(C)C(=O)c2ccccc2)C[C@H]2O[C@]1(C)n1c3ccccc3c3c4c(c5c6ccccc6n2c5c31)C(=O)NC4	31	6.53	32	109	4.76	82.6	97.5	35.6	30	107	0.446	3.15	98.5	92.9	97.5	16.8	82.8	55.1	82.7	71.7	residual activity (DDR2 (human)): 380%; residual activity (EPHA1 (human)): 93.5%; residual activity (GSG2 (human)): 70.2%; residual activity (CAMKK2 (human)): 3.9%; residual activity (CSNK2A1 (human)): 101%; residual activity (CAMK2G (human)): 43.9%; residual activity (TAOK2 (human)): 86.2%; residual activity (MAP3K8 (human)): 99.6%; residual activity (IKBKB (human)): 97.9%; residual activity (ACVR1B (human)): 102%
